The record followed here is doi:10.1101/2024.02.12.580006v1 (biorxiv, 2024).

One data set deals with T1, SeHas (Streptococcus dysgalactiae, UniProt O50201).
T1 sequence (O50201 1-417): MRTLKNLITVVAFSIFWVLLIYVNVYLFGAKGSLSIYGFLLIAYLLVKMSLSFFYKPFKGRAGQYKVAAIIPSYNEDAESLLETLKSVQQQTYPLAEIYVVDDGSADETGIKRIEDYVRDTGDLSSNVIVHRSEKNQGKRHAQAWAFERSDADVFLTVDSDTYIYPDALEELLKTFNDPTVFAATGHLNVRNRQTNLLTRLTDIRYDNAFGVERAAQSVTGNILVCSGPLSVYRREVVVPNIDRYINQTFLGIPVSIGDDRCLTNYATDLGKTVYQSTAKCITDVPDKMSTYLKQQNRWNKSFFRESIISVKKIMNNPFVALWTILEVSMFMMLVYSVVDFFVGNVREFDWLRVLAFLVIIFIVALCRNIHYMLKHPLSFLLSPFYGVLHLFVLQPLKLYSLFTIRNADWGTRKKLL
Description: UDP-Glo luminescence, product inhibition, exponential fit. The class given is biochemical.

The next data set has as its target T2, PttCesA8 (Populus tremula x Populus tremuloides, UniProt Q6J8X0).
T2 sequence (Q6J8X0 1-978): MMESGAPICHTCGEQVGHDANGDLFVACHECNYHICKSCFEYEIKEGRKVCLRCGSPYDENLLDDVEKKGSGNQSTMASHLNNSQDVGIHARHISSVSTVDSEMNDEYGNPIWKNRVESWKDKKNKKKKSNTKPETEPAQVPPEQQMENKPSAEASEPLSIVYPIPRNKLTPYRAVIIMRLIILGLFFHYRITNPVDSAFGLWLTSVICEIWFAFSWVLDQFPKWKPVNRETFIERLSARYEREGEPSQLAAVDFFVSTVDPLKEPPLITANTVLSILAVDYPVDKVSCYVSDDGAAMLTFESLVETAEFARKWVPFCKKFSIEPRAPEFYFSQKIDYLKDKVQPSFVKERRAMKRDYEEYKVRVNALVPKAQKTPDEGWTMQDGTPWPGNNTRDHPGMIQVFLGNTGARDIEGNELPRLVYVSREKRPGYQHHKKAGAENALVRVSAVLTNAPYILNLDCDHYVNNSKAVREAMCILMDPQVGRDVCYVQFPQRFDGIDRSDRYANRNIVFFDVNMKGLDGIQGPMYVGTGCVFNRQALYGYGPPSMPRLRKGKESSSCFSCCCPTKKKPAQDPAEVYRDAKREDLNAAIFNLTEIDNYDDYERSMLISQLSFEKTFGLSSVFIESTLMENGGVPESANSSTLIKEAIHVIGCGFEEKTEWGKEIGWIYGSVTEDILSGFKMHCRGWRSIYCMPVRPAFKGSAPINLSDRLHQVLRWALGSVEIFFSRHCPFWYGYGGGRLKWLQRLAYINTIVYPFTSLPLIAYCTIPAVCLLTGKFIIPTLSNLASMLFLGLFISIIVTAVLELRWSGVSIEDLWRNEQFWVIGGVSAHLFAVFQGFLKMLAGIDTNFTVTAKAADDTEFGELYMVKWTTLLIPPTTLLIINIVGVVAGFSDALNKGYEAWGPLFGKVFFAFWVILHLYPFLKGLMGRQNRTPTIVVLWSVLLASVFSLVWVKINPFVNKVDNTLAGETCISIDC
The data set is described as above. The format is biochemical.

Substrate in the data set “purified protein”: O=c1ccn([C@@H]2O[C@H](CO[P@@](=O)(O)O[P@@](=O)(O)O[C@H]3O[C@H](CO)[C@@H](O)[C@H](O)[C@H]3O)[C@@H](O)[C@H]2O)c(=O)[nH]1
Description: purified protein. To be noted: 20 mM MnCl2, 37 °C, 30 min, proteoliposomes.

Consider `O=c1ccn([C@@H]2O[C@H](COP(=O)(O)OP(=O)(O)O)[C@@H](O)[C@H]2O)c(=O)[nH]1` [UDP], for which the inhibitory constant (Ki) was determined as 24.4 µM on SeHas and 10.1 µM at PttCesA8.

B1: PttCesA8 (Populus tremula x Populus tremuloides) (protein)
chain: T2 sequence (Q6J8X0 1-978)
Consider B1, for which, in “purified protein”, the Michaelis-Menten constant (Km) is listed as 295.8 µM and the kcat stood at 21.57 s⁻¹.
